Consider one substance from patent US20260115288A1, “T CELL MANUFACTURING COMPOSITIONS AND METHODS” (BioNTech US Inc., priority 2022, published 2026).

For the test, the system named is antigen specific CD8+ T cells. The test can be described thus: Addition of IL-21 to NEO-STIM.RNA cultures. The class given is cell-based, human. An excerpt: In order to improve the NEO-STIM protocol using RNA, IL-21 was explored as an addition to the protocol.
In order to improve the NEO-STIM protocol using RNA, IL-21 was explored as an addition to the protocol. […] Using IL-21 in NEO-STIM increases central memory phenotype in antigen specific CD8^+ T cells.

“IL-21: cytokine added to the NEO-STIM protocol using RNA”: the “effect on expansion of T cells” value (NEO-STIM process using RNA encoded neoantigenic epitopes) is recorded as “improves expansion of T cells”. Further, under “NEO-STIM.RNA cultures”, the “effect on central memory phenotype in antigen specific CD8+ T cells” value was “increases the central memory phenotype” and the “effect on priming of specific T cells” value was “improves the priming of specific T cells”.
